Measurements taken from ChEMBL document CHEMBL1132249, “Design and synthesis of novel quinoxaline-2,3-dione AMPA/GlyN receptor antagonists: amino acid derivatives” (J Med Chem, 1999).
≈ marks a conversion by molar mass, not a printed value.

Experiments:
[1] = In vitro binding affinity against glycine receptor binding site using [3H]- Glycine as radioligand on rat cortical synaptosomal membranes
[2] = biological target: Glutamate receptor ionotropic, AMPA (Rattus norvegicus, UniProt P19490+P19491+P19492+P19493); experiment: In vitro binding affinity against Ionotropic glutamate receptor AMPA binding site using [3H]- AMPA as radioligand on rat cortical synaptosomal membranes
[3] = Solubility was measured in 50 mM phosphate buffer at pH 7.4; type: physicochemical
Mus musculus = species on record: Mus musculus; experiment: Anticonvulsant activity in mice was determined from maximal electroshock assay; type: functional

| IC50 [1] [nM] | IC50 [2] [nM] | solubility [3] [µg/mL] | SMILES | ED50 (Mus musculus) [mg/kg] |
| --- | --- | --- | --- | --- |
| > 10000 | 1590 | 150 (≈ 412 µM) | CCOC(=O)CN(C)Cc1c(CC)c([N+](=O)[O-])cc2nc(O)c(O)nc12 |  |
| 370 |  | 8.6 (≈ 31.1 µM) | CN1CCc2c([N+](=O)[O-])cc3nc(O)c(O)nc3c2C1 | 0.44 |

The next lines start with the compound.

| SMILES | IC50 [1] [nM] | IC50 [2] [nM] | solubility [3] [µg/mL] | ED50 (Mus musculus) [mg/kg] |
| --- | --- | --- | --- | --- |
| CCc1ccc2nc(O)c(O)nc2c1CN(C)CC(=O)O | > 10000 | > 10000 |  |  |
| CCc1c(Br)cc2nc(O)c(O)nc2c1CN(C)CC(=O)O |  | 2320 | 140 (≈ 378 µM) |  |
| CCc1c([N+](=O)[O-])cc2nc(O)c(O)nc2c1CN(C)CC(=O)O | 470 | 140 | 420 (≈ 1250 µM) |  |
| C=Cc1c(Br)cc2nc(O)c(O)nc2c1CN(C)CC(=O)O |  | 1180 | 170 (≈ 462 µM) |  |
